Laboratory results from article PMC9737537, “In Vitro Susceptibility of HIV Isolates with High Growth Capability to Antiretroviral Drugs” (International Journal of Molecular Sciences, 2022).
Read-outs that look alike come from different tables or passages of the source.

What was measured:
Type in all cases: cell-based
[1] = tested on: HIV isolates with high growth capability; assay: Antiretroviral drug response (HIV-RNA copies in PHA-PBMC culture, 7 days), pooled HIV isolates; conditions: for suppression of viral yield in vitro: HIV isolates of Figure 5; for susceptibility of isolates / IC90 values relative to Cmin / Cmax: higher growth capability, without any known drug resistance-related mutation
Description: (§1) The following nucleotide reverse transcriptase inhibitors were used: emtricitabine (Tokyo Chemical Industry, Tokyo, Japan), lamivudine (Tokyo Chemical Industry, Japan), tenofovir (Selleck Biotech, Tokyo Japan), tenofovir alafenamide (Selleck Biotech, Japan), tenofovir disoproxil fumarate (Tokyo Chemical Industry, Japan), and zidovudine (FUJIFILM Wako, Tokyo, Japan). As it was reported that tenofovir and its prodrugs (tenofovir disoproxil fumarate and tenofovir alafenamide) are measurable in plasma, the antiviral activity of these three synthetic drugs were assessed in vitro [25, 36]. In addition, one non-nucleotide reverse transcriptase inhibitor, efavirenz (Tokyo Chemical Industry, Japan); two protease inhibitors, atazanavir (Selleck Biotech, Japan) and lopinavir (Funakoshi Frontiers in Life Science, Tokyo, Japan); and four integrase inhibitors, bictegravir (Selleck Biotech, Japan), dolutegravir (Selleck Biotech, Japan), elvitegravir (EVG, Selleck Biotech, Japan), and raltegravir (Selleck Biotech, Japan) were analyzed. Representative HIV isolates and a laboratory strain of HIVpNL4-3 were screened for antiretroviral drugs. Briefly, PHA-PBMCs (1.5 × 10^6 cells) were pelleted at 1000 g for 5 min, resuspended with an HIV preparation (10^6 copies) in 100 µL volume, and incubated at 37 °C for 1 h. To remove unbound and non-infectious viruses, the cells were washed twice with RPMI1640 medium and then cultured in different concentrations of antiretroviral compounds (1 mL). The culture was carried out for 7 days, as described above, for growth capability assessment. All procedures were performed in triplicate.
To determine the susceptibility of HIV isolates with high growth capability to synthetic antiretroviral compounds, we used the in vitro susceptibility of the virus (IC90) and pharmacokinetics of an antiretroviral agent (compared to reported Cmin and Cmax).
HIV-RNA in the culture medium (140 µL) was extracted using a QIAamp Viral RNA Mini Kit (QIAGEN KK-Japan, Tokyo, Japan) and subjected to quantitative reverse transcription polymerase chain reaction (qRT-PCR). The amount of HIV-RNA was assayed using a Luna Universal One-Step qRT–PCR kit (New England Biolabs Japan, Tokyo, Japan) and forward (GagB-1F, 5′-[…]-3′, HXB2 position: 1359–1388) and reverse (GagB-1R, 5′-[…]-3′, 1500–1474) primers. The PCR signal was assessed by comparison with a standard curve (encompassing 10^2–10^8 copies/reaction of the in vitro-transcribed RNA transcripts).
The IC50 was calculated using a nonlinear regression curve fit of the dose response curves of each transformed drug concentration and normalized viral load (copies/mL) using GraphPad Prism software (version 8.0). The IC90 was determine using the IC50 and Hill slope factor from the curve fit in the online GraphPad calculator (https://www.graphpad.com/quickcalcs/ECanything1/, accessed on 1 October 2022) for effective concentration. The results are expressed as the mean IC90 of three values obtained in triplicate for each isolate.

[2] = tested on: HIV isolate DR1510-726; assay: Antiretroviral drug response in PHA-PBMC culture, isolate DR1510-726; conditions: Human immunodeficiency virus 1, 168 h, isolate with drug resistance-related mutation, 7 days
Method: as §1, with “The activity of 13 synthetic antiretroviral compounds at concentrations ranging from 0.001 to 20 μM was evaluated against HIV isolates with diverse growth capabilities and without any known drug resistance-related mutation. The” for “The”, “Briefly, PHA-PBMCs (1.5 × 10^6 cells) were pelleted at 1000 g for 5 min, resuspended with an HIV preparation (10^6 copies) in 100 µL volume, and incubated at 37 °C for 1 h. To remove unbound and non-infectious viruses, the cells were washed twice with RPMI1640 medium and then cultured in different concentrations of antiretroviral compounds (1 mL). The culture was carried out for 7 days, as described above, for growth capability assessment. All procedures were performed in triplicate.” left out

[3] = tested on: HIV isolate DR1509-397; assay: Antiretroviral drug response in PHA-PBMC culture, isolate DR1509-397
Method: as §1, with “The activity of 13 synthetic antiretroviral compounds at concentrations ranging from 0.001 to 20 μM was evaluated against HIV isolates with diverse growth capabilities and without any known drug resistance-related mutation. The” for “The”, “Briefly, PHA-PBMCs (1.5 × 10^6 cells) were pelleted at 1000 g for 5 min, resuspended with an HIV preparation (10^6 copies) in 100 µL volume, and incubated at 37 °C for 1 h. To remove unbound and non-infectious viruses, the cells were washed twice with RPMI1640 medium and then cultured in different concentrations of antiretroviral compounds (1 mL). The culture was carried out for 7 days, as described above, for growth capability assessment. All procedures were performed in triplicate.” left out
HIV-RNA in the culture medium (140 µL) was extracted using a QIAamp Viral RNA Mini Kit (QIAGEN KK-Japan, Tokyo, Japan) and subjected to quantitative reverse transcription polymerase chain reaction (qRT-PCR). […] The PCR signal was assessed by comparison with a standard curve (encompassing 10^2–10^8 copies/reaction of the in vitro-transcribed RNA transcripts).
The IC50 was calculated using a nonlinear regression curve fit of the dose response curves of each transformed drug concentration and normalized viral load (copies/mL) using GraphPad Prism software (version 8.0). […] The results are expressed as the mean IC90 of three values obtained in triplicate for each isolate.

[4] = tested on: HIV isolate DR1606-521; assay: Antiretroviral drug response in PHA-PBMC culture, isolate DR1606-521
Method: as §1, with “The activity of 13 synthetic antiretroviral compounds at concentrations ranging from 0.001 to 20 μM was evaluated against HIV isolates with diverse growth capabilities and without any known drug resistance-related mutation. The” for “The”, “Briefly, PHA-PBMCs (1.5 × 10^6 cells) were pelleted at 1000 g for 5 min, resuspended with an HIV preparation (10^6 copies) in 100 µL volume, and incubated at 37 °C for 1 h. To remove unbound and non-infectious viruses, the cells were washed twice with RPMI1640 medium and then cultured in different concentrations of antiretroviral compounds (1 mL). The culture was carried out for 7 days, as described above, for growth capability assessment. All procedures were performed in triplicate.” left out

[5] = tested on: HIV isolate DR1606-479; assay: Antiretroviral drug response in PHA-PBMC culture, isolate DR1606-479; conditions: Human immunodeficiency virus 1, 168 h, isolate with drug resistance-related mutation, 7 days
Method: as §1, with “The activity of 13 synthetic antiretroviral compounds at concentrations ranging from 0.001 to 20 μM was evaluated against HIV isolates with diverse growth capabilities and without any known drug resistance-related mutation. The” for “The”, “Briefly, PHA-PBMCs (1.5 × 10^6 cells) were pelleted at 1000 g for 5 min, resuspended with an HIV preparation (10^6 copies) in 100 µL volume, and incubated at 37 °C for 1 h. To remove unbound and non-infectious viruses, the cells were washed twice with RPMI1640 medium and then cultured in different concentrations of antiretroviral compounds (1 mL). The culture was carried out for 7 days, as described above, for growth capability assessment. All procedures were performed in triplicate.” left out

[6] = tested on: HIV isolate S1506-064; assay: Antiretroviral drug response in PHA-PBMC culture, isolate S1506-064; conditions: Human immunodeficiency virus 1, 168 h, high growth capability, no known mutation against tenofovir, 7 days
Method: as §1, with “The activity of 13 synthetic antiretroviral compounds at concentrations ranging from 0.001 to 20 μM was evaluated against HIV isolates with diverse growth capabilities and without any known drug resistance-related mutation. The” for “The”, “Briefly, PHA-PBMCs (1.5 × 10^6 cells) were pelleted at 1000 g for 5 min, resuspended with an HIV preparation (10^6 copies) in 100 µL volume, and incubated at 37 °C for 1 h. To remove unbound and non-infectious viruses, the cells were washed twice with RPMI1640 medium and then cultured in different concentrations of antiretroviral compounds (1 mL). The culture was carried out for 7 days, as described above, for growth capability assessment. All procedures were performed in triplicate.” left out

[7] = tested on: HIV isolate DR1605-400; assay: Antiretroviral drug response in PHA-PBMC culture, isolate DR1605-400; conditions: Human immunodeficiency virus 1, 168 h, high growth capability, no known drug resistance-related mutation, 7 days
Method: as §1, with “The activity of 13 synthetic antiretroviral compounds at concentrations ranging from 0.001 to 20 μM was evaluated against HIV isolates with diverse growth capabilities and without any known drug resistance-related mutation. The” for “The”, “Briefly, PHA-PBMCs (1.5 × 10^6 cells) were pelleted at 1000 g for 5 min, resuspended with an HIV preparation (10^6 copies) in 100 µL volume, and incubated at 37 °C for 1 h. To remove unbound and non-infectious viruses, the cells were washed twice with RPMI1640 medium and then cultured in different concentrations of antiretroviral compounds (1 mL). The culture was carried out for 7 days, as described above, for growth capability assessment. All procedures were performed in triplicate.” left out

[8] = Human immunodeficiency virus 1, lowest among the 13 compounds, isolate not specified, read-out: lowest IC90 values
[9] = Human immunodeficiency virus 1, read-out: 90% inhibitory concentration (IC90)

| Compound | IC90 [1, 8] [µM] | susceptibility of isolates [1] | IC90 [1, 9] [µM] | IC90 values relative to Cmin / Cmax [1] | other results |
| --- | --- | --- | --- | --- | --- |
| COC(=O)N[C@H](C(=O)N[C@@H](Cc1ccccc1)[C@@H](O)CN(Cc1ccc(-c2ccccn2)cc1)NC(=O)[C@@H](NC(=O)OC)C(C)(C)C)C(C)(C)C [atazanavir] | 0.0013 ± 0.00112 | retained susceptibility with lower IC90 values |  |  | suppression of viral yield in vitro [1]: remarkably suppressed the viral yield |
| O=C(NCc1c(F)cc(F)cc1F)c1cn2c(c(O)c1=O)C(=O)N1[C@H]3CC[C@H](C3)O[C@@H]1C2 [bictegravir] |  | retained susceptibility with lower IC90 values |  |  |  |
| C[C@@H]1CCO[C@H]2Cn3cc(C(=O)NCc4ccc(F)cc4F)c(=O)c(O)c3C(=O)N12 [dolutegravir] | 0.0011 ± 0.00072 | retained susceptibility with lower IC90 values |  |  | suppression of viral yield in vitro [1]: remarkably suppressed the viral yield |
| O=C1Nc2ccc(Cl)cc2[C@@](C#CC2CC2)(C(F)(F)F)O1 [efavirenz] |  |  | 3.65 ± 0.77 | close to or above Cmin | IC90 relative to Cmin ([1]; isolates both with and without any known drug resistance-related mutation (Figure 5)): above Cmin |
| COc1cc2c(cc1Cc1cccc(Cl)c1F)c(=O)c(C(=O)O)cn2[C@H](CO)C(C)C [elvitegravir] |  | retained susceptibility with lower IC90 values |  |  |  |
| Nc1nc(=O)n([C@@H]2CS[C@H](CO)O2)cc1F [emtricitabine] |  |  | 0.68 ± 0.37 | close to or above Cmin |  |
| Nc1ccn([C@@H]2CS[C@H](CO)O2)c(=O)n1 [lamivudine] |  |  | 6.83 ± 3.96 | close to or above Cmin |  |
| Cc1cccc(C)c1OCC(=O)N[C@@H](Cc1ccccc1)[C@@H](O)C[C@H](Cc1ccccc1)NC(=O)[C@H](C(C)C)N1CCCNC1=O [lopinavir] |  | retained susceptibility with lower IC90 values |  |  |  |
| Cc1nnc(C(=O)NC(C)(C)c2nc(C(=O)NCc3ccc(F)cc3)c(O)c(=O)n2C)o1 [raltegravir] |  | retained susceptibility with lower IC90 values |  |  |  |
| CC(C)OC(=O)[C@H](C)N[P@](=O)(CO[C@H](C)Cn1cnc2c(N)ncnc21)Oc1ccccc1 [tenofovir alafenamide] | 0.0003 ± 0.00023 | retained susceptibility with lower IC90 values |  |  | activity against resistant isolates ([1]; isolates with drug resistance-related mutations in tenofovir disoproxil fumarate): active |
| C[C@H](Cn1cnc2c(N)ncnc21)OCP(=O)(O)O [tenofovir] |  |  | 2.05 ± 0.4 | above Cmax | IC90 [2]: 7.7 ± 0.06 µM; IC90 ([3]; Human immunodeficiency virus 1, 168 h, high growth capability, no known drug resistance-related mutation, PHA-PBMC, 7 days, read-out: IC90): 2 ± 0.4 µM; IC90 ([3]; Human immunodeficiency virus 1, screened using two additional blood sources (three different blood sources, Figure 2B), read-out: mean IC90): 1.9 ± 0.04 µM; virus production in the presence of drug ([3]; tenofovir at 1 μM (close to Cmax)): hardly showed the decrease in virus production; IC90 ([4]; Human immunodeficiency virus 1, 168 h, isolate with drug resistance-related mutation, PHA-PBMC, 7 days, read-out: IC90): 8.3 ± 0.12 µM; IC90 ([4]; Human immunodeficiency virus 1, tenofovir-resistant isolate, above Cmax (Figure 4), read-out: concentration required to fully suppress the number of viral copies (printed as IC90)): 10 µM; IC90 [5]: 8.5 ± 0.1 µM; IC90 [6]: 2.8 ± 0.47 µM; IC90 [7]: 1.4 ± 0.87 µM |
| Cc1cn([C@H]2C[C@H](N=[N+]=[N-])[C@@H](CO)O2)c(=O)[nH]c1=O [zidovudine] | 0.0015 ± 0.00111 | retained susceptibility with lower IC90 values |  |  |  |
